Data on 9 compounds can be found in PubChem BioAssay (NCI).

Some test systems named below: RPMI-8226 leukemia; OVCAR-5 ovarian; A549 NSCLC; M14 melanoma; 786-0 renal; MOLT-4 leukemia; T-47D breast; A498 renal; HCT-116 colon; OVCAR-3 ovarian.
Common to all, as to test: growth of human tumour cells (NCI), 48 h

Where “and” joins values, the source holds several entries; their conditions need not be identical. Identical values can stand only once.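 Protocol summary: plate cells (96-well), add compound at 5 concentrations, incubate 48 h, interpolate endpoints linearly. GI50 = concentration required for 50% inhibition of growth. TGI marks complete inhibition of growth.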 A value given as a limit tells only on which side of the number the result lay.

For the compound `CN(C)CCCN1c2ccc(O)cc2Sc2ccc(Cl)cc21`, the TGI with RPMI-8226 leukemia was found to be 21.9 µM; in the assay with OVCAR-5 ovarian, 30.8 µM; with A549 NSCLC it was 28.6 µM; with M14 melanoma, 19.7 µM; with 786-0 renal it was 24 µM; in the assay on MOLT-4 leukemia, 17.5 µM. Also, the TGI in the assay with T-47D breast was found to be 38.7 µM; with A498 renal, 31.6 µM; with HCT-116 colon, 20.1 µM; with OVCAR-3 ovarian, 24.5 µM.

On to `Cc1ccc(NC(=O)N2CCCCC2)cc1[N+](=O)[O-]`, for which the GI50 is 90.1 µM in the assay on RPMI-8226 leukemia; more than 100 µM in the assay with OVCAR-5 ovarian; more than 100 µM with A549 NSCLC; more than 100 µM in the assay with M14 melanoma; more than 100 µM with 786-0 renal; more than 100 µM in the assay with MOLT-4 leukemia. Further, the GI50 was 77.1 µM in the assay on T-47D breast, 87.8 µM in the assay on A498 renal, more than 100 µM in the assay on HCT-116 colon and more than 100 µM in the assay on OVCAR-3 ovarian. In addition, the TGI in the assay with RPMI-8226 leukemia, in the assay on OVCAR-5 ovarian, in the assay with A549 NSCLC, in the assay on M14 melanoma, in the assay with 786-0 renal and with MOLT-4 leukemia was more than 100 µM in each case. In addition, the TGI in the assay with T-47D breast, with A498 renal, with HCT-116 colon and with OVCAR-3 ovarian was more than 100 µM in each case.

For `O=C(O)c1nnsc1-c1csnn1`, the TGI with RPMI-8226 leukemia, in the assay with OVCAR-5 ovarian, with A549 NSCLC, in the assay with M14 melanoma, in the assay on 786-0 renal and in the assay with MOLT-4 leukemia was more than 100 µM each time. Also, the TGI in the assay on T-47D breast, with A498 renal, in the assay with HCT-116 colon and in the assay with OVCAR-3 ovarian was more than 100 µM in each case.

As for `O=C(c1ccccc1)c1ccc(O)c2ncccc12`, the GI50 is 4.25 µM in the assay on RPMI-8226 leukemia; 4.87 µM in the assay on OVCAR-5 ovarian; 9.02 µM with A549 NSCLC; 2.7 µM in the assay on M14 melanoma; 5.09 µM in the assay with 786-0 renal; 3.16 µM in the assay on MOLT-4 leukemia. Moreover, the GI50 is 3.14 µM in the assay with T-47D breast, 9.29 µM in the assay with A498 renal, 2.62 µM in the assay on HCT-116 colon and 2.1 µM in the assay with OVCAR-3 ovarian. The TGI with RPMI-8226 leukemia is 39.1 µM; with OVCAR-5 ovarian, 22.3 µM; in the assay with A549 NSCLC it was more than 100 µM; in the assay with M14 melanoma it was 19.5 µM; with 786-0 renal, 26.5 µM; in the assay on MOLT-4 leukemia, more than 100 µM. The TGI in the assay with T-47D breast turned out to be 15.3 µM; with A498 renal it was 27.4 µM; with HCT-116 colon it was 10.3 µM; in the assay with OVCAR-3 ovarian it was 6.99 µM.

`Oc1c(Cl)cc(CN(Cc2cc(Cl)c(O)c(Cl)c2)C2CCCCC2)cc1Cl`: the TGI in the assay with RPMI-8226 leukemia, in the assay with OVCAR-5 ovarian, with A549 NSCLC, in the assay with M14 melanoma, with 786-0 renal and in the assay on MOLT-4 leukemia was more than 100 µM in each case. Also, the TGI with T-47D breast, with A498 renal, in the assay on HCT-116 colon and in the assay with OVCAR-3 ovarian was more than 100 µM in each case.

With `Clc1ccc(N/N=C(\c2ccccc2)c2ccccn2)nc1`, the GI50 is 0.128 µM with RPMI-8226 leukemia; 0.234 µM in the assay with OVCAR-5 ovarian; 0.0879 µM in the assay with M14 melanoma; 0.291 µM in the assay on 786-0 renal; 0.0367 µM with MOLT-4 leukemia; less than 0.0163 µM in the assay with T-47D breast. Also, the GI50 was 0.133 µM with A498 renal, 0.0313 µM in the assay with HCT-116 colon and 0.0379 µM in the assay on OVCAR-3 ovarian. In addition, the TGI was more than 52.6 µM in the assay on RPMI-8226 leukemia; more than 100 µM with OVCAR-5 ovarian; > 100 µM and 15.9 µM in the assay with A549 NSCLC; 14.4 µM and 16.1 µM in the assay with M14 melanoma; 15.8 µM in the assay with 786-0 renal; more than 100 µM with T-47D breast. Besides, the TGI in the assay with A498 renal is 16.4 µM and > 100 µM; in the assay on HCT-116 colon, 10.6 µM and 11.1 µM; in the assay on OVCAR-3 ovarian it was 11.2 µM and > 28.6 µM.

`CNC(C)[C@H]1CCC2C3CCC4C[C@@H](N(C)C(=O)c5ccccc5)CC[C@]4(C)C3CC[C@@]21C` (some centres not stated): the GI50 was 0.426 µM with RPMI-8226 leukemia; 2.4 µM with OVCAR-5 ovarian; 2.31 µM in the assay on A549 NSCLC; 1.3 µM with M14 melanoma; 1.3 µM in the assay with 786-0 renal; 1.02 µM in the assay on MOLT-4 leukemia. Further, the GI50 in the assay on T-47D breast was 0.37 µM; in the assay on A498 renal, 1.65 µM; with HCT-116 colon, 0.409 µM; in the assay on OVCAR-3 ovarian it was 1.22 µM. Further, the TGI with RPMI-8226 leukemia turned out to be 3.3 µM; in the assay with OVCAR-5 ovarian, 14.8 µM; in the assay on A549 NSCLC, 7.29 µM; in the assay with M14 melanoma, 2.95 µM; in the assay on 786-0 renal, 2.82 µM; in the assay with MOLT-4 leukemia, 3.46 µM. Besides, the TGI turned out to be 4.26 µM in the assay with T-47D breast, 10.2 µM with A498 renal, 1.73 µM with HCT-116 colon and 3.99 µM in the assay on OVCAR-3 ovarian.

On to `CC(=O)[O][Hg][CH2]C1(C)COC(C)([CH2][Hg][O]C(C)=O)CO1` (configuration not stated), for which the GI50 with RPMI-8226 leukemia is 1.17 µM; in the assay with OVCAR-5 ovarian, more than 49.2 µM; with A549 NSCLC, 7.79 µM; in the assay on M14 melanoma it was 13.6 µM; in the assay with 786-0 renal, 16.8 µM; in the assay with MOLT-4 leukemia it was 0.747 µM. Besides, the GI50 in the assay on T-47D breast was 2.94 µM; in the assay on A498 renal, 19.4 µM; in the assay on HCT-116 colon, 1.22 µM. In addition, the TGI in the assay with RPMI-8226 leukemia was 8.29 µM; in the assay on OVCAR-5 ovarian, more than 63.8 µM; with A549 NSCLC it was 38.4 µM; in the assay with M14 melanoma, 27.4 µM; with 786-0 renal, 31 µM; with MOLT-4 leukemia it was 3.14 µM. Also, the TGI came to 21.4 µM with T-47D breast, 34.8 µM in the assay with A498 renal, 6.58 µM in the assay on HCT-116 colon and 0.0232 µM in the assay with OVCAR-3 ovarian.

Regarding `CCOc1ccc(NC(=O)c2cc3ccccc3cc2O)cc1`, the GI50 in the assay on RPMI-8226 leukemia was 38.9 µM; with OVCAR-5 ovarian it was more than 100 µM; in the assay on A549 NSCLC, more than 100 µM; in the assay with M14 melanoma it was 93.4 µM; with 786-0 renal, 28.4 µM; in the assay with MOLT-4 leukemia, more than 100 µM. In addition, the GI50 in the assay on T-47D breast is more than 100 µM; in the assay with A498 renal, 86.4 µM; in the assay on HCT-116 colon it was 71.2 µM; in the assay on OVCAR-3 ovarian, more than 100 µM. Besides, the TGI in the assay on RPMI-8226 leukemia is more than 100 µM; in the assay with OVCAR-5 ovarian it was more than 100 µM; in the assay with A549 NSCLC, more than 100 µM; in the assay on M14 melanoma it was more than 100 µM; in the assay on 786-0 renal, 74.5 µM; in the assay on MOLT-4 leukemia, more than 100 µM. For the same compound, the TGI with T-47D breast, in the assay with A498 renal, in the assay with HCT-116 colon and with OVCAR-3 ovarian was more than 100 µM in each case.
